From ChEMBL document CHEMBL3045835, “Comparative study of conventional and microwave-assisted synthesis of some Schiff bases and their potential as antimicrobial agents” (2012)

Legend:
Format in all cases: functional
[1] = tested on: Pseudomonas aeruginosa; test: Antibacterial activity against Pseudomonas aeruginosa MTCC 424 after 24 hr by broth dilution method; settings: MTCC 424, 24 h
[2] = tested on: Staphylococcus aureus; test: Antibacterial activity against Staphylococcus aureus MTCC 1430 at 500 ug/ml after 18 hr by cup-plate method; settings: MTCC 1430, 18 h, read-out: DIZ
[3] = tested on: Bacillus pumilus; test: Antibacterial activity against Bacillus pumilus MTCC 1456 at 200 ug/ml after 18 hr by cup-plate method; settings: MTCC 1456, 18 h, read-out: DIZ
[4] = tested on: Bacillus pumilus; test: Antibacterial activity against Bacillus pumilus MTCC 1456 after 24 hr by broth dilution method; settings: MTCC 1456, 24 h
[5] = tested on: Pseudomonas fluorescens; test: Antibacterial activity against Pseudomonas fluorescens MTCC 2421 at 1500 ug/ml after 18 hr by cup-plate method; settings: MTCC 2421, 18 h, read-out: DIZ
[6] = tested on: Aspergillus niger; test: Antifungal activity against Aspergillus niger MTCC 2546 at 1500 ug/ml after 18 hr by cup-plate method; settings: MTCC 2546, 18 h, read-out: DIZ
[7] = tested on: Pseudomonas aeruginosa; test: Antibacterial activity against Pseudomonas aeruginosa MTCC 424 at 100 ug/ml after 18 hr by cup-plate method; settings: MTCC 424, 18 h, read-out: DIZ
[8] = tested on: Pseudomonas fluorescens; test: Antibacterial activity against Pseudomonas fluorescens MTCC 2421 at 500 ug/ml after 18 hr by cup-plate method; settings: MTCC 2421, 18 h, read-out: DIZ
[9] = tested on: Aspergillus niger; test: Antifungal activity against Aspergillus niger MTCC 2546 at 100 ug/ml after 18 hr by cup-plate method; settings: MTCC 2546, 18 h, read-out: DIZ
[10] = tested on: Pseudomonas aeruginosa; test: Antibacterial activity against Pseudomonas aeruginosa MTCC 424 at 1500 ug/ml after 18 hr by cup-plate method; settings: MTCC 424, 18 h, read-out: DIZ
[11] = tested on: Penicillium chrysogenum; test: Antifungal activity against Penicillium chrysogenum MTCC 161 at 1000 ug/ml after 18 hr by cup-plate method; settings: MTCC 161, 18 h, read-out: DIZ
[12] = tested on: Pseudomonas aeruginosa; test: Antibacterial activity against Pseudomonas aeruginosa MTCC 424 at 1000 ug/ml after 18 hr by cup-plate method; settings: MTCC 424, 18 h, read-out: DIZ
[13] = tested on: Escherichia coli; test: Antibacterial activity against Escherichia coli MTCC 1573 at 1000 ug/ml after 18 hr by cup-plate method; settings: MTCC 1573, 18 h, read-out: DIZ
[14] = tested on: Pseudomonas fluorescens; test: Antibacterial activity against Pseudomonas fluorescens MTCC 2421 after 24 hr by broth dilution method; settings: MTCC 2421, 24 h
[15] = tested on: Bacillus subtilis; test: Antibacterial activity against Bacillus subtilis MTCC 441 at 500 ug/ml after 18 hr by cup plate method; settings: MTCC 441, 18 h, read-out: DIZ
[16] = tested on: Pseudomonas aeruginosa; test: Antibacterial activity against Pseudomonas aeruginosa MTCC 424 at 500 ug/ml after 18 hr by cup-plate method; settings: MTCC 424, 18 h, read-out: DIZ
[17] = tested on: Bacillus pumilus; test: Antibacterial activity against Bacillus pumilus MTCC 1456 at 1500 ug/ml after 18 hr by cup-plate method; settings: MTCC 1456, 18 h, read-out: DIZ
[18] = tested on: Escherichia coli; test: Antibacterial activity against Escherichia coli MTCC 1573 after 24 hr by broth dilution method; settings: MTCC 1573, 24 h
[19] = tested on: Micrococcus luteus; test: Antibacterial activity against Micrococcus luteus MTCC 1538 at 1500 ug/ml after 18 hr by cup-plate method; settings: MTCC 1538, 18 h, read-out: DIZ
[20] = tested on: Aspergillus niger; test: Antifungal activity against Aspergillus niger MTCC 2546 at 200 ug/ml after 18 hr by cup-plate method; settings: MTCC 2546, 18 h, read-out: DIZ
[21] = tested on: Penicillium chrysogenum; test: Antifungal activity against Penicillium chrysogenum MTCC 161 at 500 ug/ml after 18 hr by cup-plate method; settings: MTCC 161, 18 h, read-out: DIZ
[22] = tested on: Pseudomonas fluorescens; test: Antibacterial activity against Pseudomonas fluorescens MTCC 2421 at 1000 ug/ml after 18 hr by cup-plate method; settings: MTCC 2421, 18 h, read-out: DIZ
[23] = tested on: Aspergillus niger; test: Antifungal activity against Aspergillus niger MTCC 2546 after 24 hr by broth dilution method; settings: MTCC 2546, 24 h
[24] = tested on: Staphylococcus aureus; test: Antibacterial activity against Staphylococcus aureus MTCC 1430 after 24 hr by broth dilution method; settings: MTCC 1430, 24 h
[25] = tested on: Bacillus subtilis; test: Antibacterial activity against Bacillus subtilis MTCC 441 at 1500 ug/ml after 18 hr by cup plate method; settings: MTCC 441, 18 h, read-out: DIZ
[26] = tested on: Bacillus subtilis; test: Antibacterial activity against Bacillus subtilis MTCC 441 at 200 ug/ml after 18 hr by cup plate method; settings: MTCC 441, 18 h, read-out: DIZ
[27] = tested on: Escherichia coli; test: Antibacterial activity against Escherichia coli MTCC 1573 at 500 ug/ml after 18 hr by cup-plate method; settings: MTCC 1573, 18 h, read-out: DIZ
[28] = tested on: Bacillus pumilus; test: Antibacterial activity against Bacillus pumilus MTCC 1456 at 1000 ug/ml after 18 hr by cup-plate method; settings: MTCC 1456, 18 h, read-out: DIZ
[29] = tested on: Micrococcus luteus; test: Antibacterial activity against Micrococcus luteus MTCC 1538 at 100 ug/ml after 18 hr by cup-plate method; settings: MTCC 1538, 18 h, read-out: DIZ
[30] = tested on: Micrococcus luteus; test: Antibacterial activity against Micrococcus luteus MTCC 1538 at 1000 ug/ml after 18 hr by cup-plate method; settings: MTCC 1538, 18 h, read-out: DIZ
[31] = tested on: Bacillus pumilus; test: Antibacterial activity against Bacillus pumilus MTCC 1456 at 500 ug/ml after 18 hr by cup-plate method; settings: MTCC 1456, 18 h, read-out: DIZ
[32] = tested on: Escherichia coli; test: Antibacterial activity against Escherichia coli MTCC 1573 at 100 ug/ml after 18 hr by cup-plate method; settings: MTCC 1573, 18 h, read-out: DIZ
[33] = tested on: Bacillus subtilis; test: Antibacterial activity against Bacillus subtilis MTCC 441 at 100 ug/ml after 18 hr by cup plate method; settings: MTCC 441, 18 h, read-out: DIZ
[34] = tested on: Staphylococcus aureus; test: Antibacterial activity against Staphylococcus aureus MTCC 1430 at 100 ug/ml after 18 hr by cup-plate method; settings: MTCC 1430, 18 h, read-out: DIZ
[35] = tested on: Micrococcus luteus; test: Antibacterial activity against Micrococcus luteus MTCC 1538 at 200 ug/ml after 18 hr by cup-plate method; settings: MTCC 1538, 18 h, read-out: DIZ
[36] = tested on: Aspergillus niger; test: Antifungal activity against Aspergillus niger MTCC 2546 at 1000 ug/ml after 18 hr by cup-plate method; settings: MTCC 2546, 18 h, read-out: DIZ
[37] = tested on: Escherichia coli; test: Antibacterial activity against Escherichia coli MTCC 1573 at 200 ug/ml after 18 hr by cup-plate method; settings: MTCC 1573, 18 h, read-out: DIZ
[38] = tested on: Pseudomonas fluorescens; test: Antibacterial activity against Pseudomonas fluorescens MTCC 2421 at 100 ug/ml after 18 hr by cup-plate method; settings: MTCC 2421, 18 h, read-out: DIZ
[39] = tested on: Bacillus subtilis; test: Antibacterial activity against Bacillus subtilis MTCC 441 after 24 hr by broth dilution method; settings: MTCC 441, 24 h
[40] = tested on: Bacillus pumilus; test: Antibacterial activity against Bacillus pumilus MTCC 1456 at 100 ug/ml after 18 hr by cup-plate method; settings: MTCC 1456, 18 h, read-out: DIZ
[41] = tested on: Penicillium chrysogenum; test: Antifungal activity against Penicillium chrysogenum MTCC 161 at 1500 ug/ml after 18 hr by cup-plate method; settings: MTCC 161, 18 h, read-out: DIZ
[42] = tested on: Micrococcus luteus; test: Antibacterial activity against Micrococcus luteus MTCC 1538 after 24 hr by broth dilution method; settings: MTCC 1538, 24 h
[43] = tested on: Penicillium chrysogenum; test: Antifungal activity against Penicillium chrysogenum MTCC 161 after 24 hr by broth dilution method; settings: MTCC 161, 24 h
[44] = tested on: Pseudomonas fluorescens; test: Antibacterial activity against Pseudomonas fluorescens MTCC 2421 at 200 ug/ml after 18 hr by cup-plate method; settings: MTCC 2421, 18 h, read-out: DIZ
[45] = tested on: Pseudomonas aeruginosa; test: Antibacterial activity against Pseudomonas aeruginosa MTCC 424 at 200 ug/ml after 18 hr by cup-plate method; settings: MTCC 424, 18 h, read-out: DIZ
[46] = tested on: Aspergillus niger; test: Antifungal activity against Aspergillus niger MTCC 2546 at 500 ug/ml after 18 hr by cup-plate method; settings: MTCC 2546, 18 h, read-out: DIZ
[47] = tested on: Staphylococcus aureus; test: Antibacterial activity against Staphylococcus aureus MTCC 1430 at 200 ug/ml after 18 hr by cup-plate method; settings: MTCC 1430, 18 h, read-out: DIZ
[48] = tested on: Micrococcus luteus; test: Antibacterial activity against Micrococcus luteus MTCC 1538 at 500 ug/ml after 18 hr by cup-plate method; settings: MTCC 1538, 18 h, read-out: DIZ
[49] = tested on: Escherichia coli; test: Antibacterial activity against Escherichia coli MTCC 1573 at 1500 ug/ml after 18 hr by cup-plate method; settings: MTCC 1573, 18 h, read-out: DIZ
[50] = tested on: Bacillus subtilis; test: Antibacterial activity against Bacillus subtilis MTCC 441 at 1000 ug/ml after 18 hr by cup plate method; settings: MTCC 441, 18 h, read-out: DIZ
[51] = tested on: Staphylococcus aureus; test: Antibacterial activity against Staphylococcus aureus MTCC 1430 at 1000 ug/ml after 18 hr by cup-plate method; settings: MTCC 1430, 18 h, read-out: DIZ
[52] = tested on: Penicillium chrysogenum; test: Antifungal activity against Penicillium chrysogenum MTCC 161 at 100 ug/ml after 18 hr by cup-plate method; settings: MTCC 161, 18 h, read-out: DIZ
[53] = tested on: Staphylococcus aureus; test: Antibacterial activity against Staphylococcus aureus MTCC 1430 at 1500 ug/ml after 18 hr by cup-plate method; settings: MTCC 1430, 18 h, read-out: DIZ
[54] = tested on: Penicillium chrysogenum; test: Antifungal activity against Penicillium chrysogenum MTCC 161 at 200 ug/ml after 18 hr by cup-plate method; settings: MTCC 161, 18 h, read-out: DIZ

C(=N/c1nc[nH]n1)/c1cccc2ccccc12
17 mm: zone of inhibition at 100 µg/mL [7] | zone of inhibition at 200 µg/mL [20] | zone of inhibition at 500 µg/mL [31] | zone of inhibition at 100 µg/mL [32] | zone of inhibition at 100 µg/mL [52]
15 mm: zone of inhibition at 100 µg/mL [33] | zone of inhibition at 200 µg/mL [35]
200 µg/mL: MIC [1]
18 mm: zone of inhibition at 500 µg/mL [15] | zone of inhibition at 1000 µg/mL [28] | zone of inhibition at 200 µg/mL [37] | zone of inhibition at 200 µg/mL [45] | zone of inhibition at 500 µg/mL [46] | zone of inhibition at 500 µg/mL [48] | zone of inhibition at 1500 µg/mL [53] | zone of inhibition at 200 µg/mL [54]
25 mm: zone of inhibition at 1500 µg/mL [49]
23 mm: zone of inhibition at 1500 µg/mL [5] | zone of inhibition at 1000 µg/mL [13] | zone of inhibition at 1500 µg/mL [19]
24 mm: zone of inhibition at 1500 µg/mL [10] | zone of inhibition at 1500 µg/mL [41]
14 mm: zone of inhibition at 500 µg/mL [2] | zone of inhibition at 100 µg/mL [38]
12 mm: zone of inhibition at 100 µg/mL [29] | zone of inhibition at 100 µg/mL [34]
20 mm: zone of inhibition at 500 µg/mL [16] | zone of inhibition at 1500 µg/mL [17] | zone of inhibition at 500 µg/mL [21] | zone of inhibition at 1000 µg/mL [30]
16 mm: zone of inhibition at 200 µg/mL [3] | zone of inhibition at 100 µg/mL [9] | zone of inhibition at 200 µg/mL [26] | zone of inhibition at 200 µg/mL [44] | zone of inhibition at 1000 µg/mL [51]
400 µg/mL: MIC [24]
13 mm: zone of inhibition at 100 µg/mL [40] | zone of inhibition at 200 µg/mL [47]
50 µg/mL: MIC [18] | MIC [23] | MIC [43]
21 mm: zone of inhibition at 1000 µg/mL [11] | zone of inhibition at 1000 µg/mL [22] | zone of inhibition at 1500 µg/mL [25] | zone of inhibition at 1000 µg/mL [36]
22 mm: zone of inhibition at 1500 µg/mL [6] | zone of inhibition at 1000 µg/mL [12]
300 µg/mL: MIC [4] | MIC [14] | MIC [39] | MIC [42]
19 mm: zone of inhibition at 500 µg/mL [8] | zone of inhibition at 500 µg/mL [27] | zone of inhibition at 1000 µg/mL [50]
